# Source: ChEMBL document CHEMBL3991601, “The target landscape of clinical kinase drugs” (Science, 2017)
# Active and inactive are the calls of the source. Cut-off read from the data, not from the text of the source, for most assays here: actives have a measured Kd and inactives only a lower limit.
# Biological target: T1, DNA replication licensing factor MCM4 (Homo sapiens, UniProt P33991)
# T1 sequence (P33991 whole entry): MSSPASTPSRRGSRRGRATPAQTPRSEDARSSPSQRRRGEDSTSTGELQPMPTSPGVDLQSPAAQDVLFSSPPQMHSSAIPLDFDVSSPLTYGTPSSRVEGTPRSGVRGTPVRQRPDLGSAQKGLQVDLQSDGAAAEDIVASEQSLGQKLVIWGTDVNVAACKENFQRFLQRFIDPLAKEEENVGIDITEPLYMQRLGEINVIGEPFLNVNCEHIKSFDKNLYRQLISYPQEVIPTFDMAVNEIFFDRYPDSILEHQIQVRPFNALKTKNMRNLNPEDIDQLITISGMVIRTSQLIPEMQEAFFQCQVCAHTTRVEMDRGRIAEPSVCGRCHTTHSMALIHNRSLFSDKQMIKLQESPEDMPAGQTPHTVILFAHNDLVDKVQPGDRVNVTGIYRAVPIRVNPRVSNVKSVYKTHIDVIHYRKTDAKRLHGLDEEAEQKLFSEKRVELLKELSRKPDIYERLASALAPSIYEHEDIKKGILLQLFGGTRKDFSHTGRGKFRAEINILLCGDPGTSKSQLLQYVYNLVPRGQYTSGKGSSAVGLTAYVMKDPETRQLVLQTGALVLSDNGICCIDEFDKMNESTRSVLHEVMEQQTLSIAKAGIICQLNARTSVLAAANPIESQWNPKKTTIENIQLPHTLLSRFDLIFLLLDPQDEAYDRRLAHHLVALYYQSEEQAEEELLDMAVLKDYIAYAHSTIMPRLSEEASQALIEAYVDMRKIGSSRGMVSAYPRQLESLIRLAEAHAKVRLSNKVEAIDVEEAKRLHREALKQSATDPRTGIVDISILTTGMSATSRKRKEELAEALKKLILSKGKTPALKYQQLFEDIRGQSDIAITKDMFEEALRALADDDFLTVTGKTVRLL
# Note: in the data inactive means no Kd found up to 30 µM.
row,SMILES,Kd
1,CN(C)C(=O)c1cc2cnc(Nc3ccc(N4CCNCC4)cn3)nc2n1C1CCCC1 [RIBOCICLIB],> 30 µM (inactive)
2,CNC(=O)CN1CCC(Oc2cc3c(Nc4cccc(Cl)c4F)ncnc3cc2OC)CC1 [SAPITINIB],> 30 µM (inactive)

# Biological target: Proto-oncogene tyrosine-protein kinase Src (Homo sapiens, UniProt P12931)
# Sequence (P12931 2-536 limits assumed): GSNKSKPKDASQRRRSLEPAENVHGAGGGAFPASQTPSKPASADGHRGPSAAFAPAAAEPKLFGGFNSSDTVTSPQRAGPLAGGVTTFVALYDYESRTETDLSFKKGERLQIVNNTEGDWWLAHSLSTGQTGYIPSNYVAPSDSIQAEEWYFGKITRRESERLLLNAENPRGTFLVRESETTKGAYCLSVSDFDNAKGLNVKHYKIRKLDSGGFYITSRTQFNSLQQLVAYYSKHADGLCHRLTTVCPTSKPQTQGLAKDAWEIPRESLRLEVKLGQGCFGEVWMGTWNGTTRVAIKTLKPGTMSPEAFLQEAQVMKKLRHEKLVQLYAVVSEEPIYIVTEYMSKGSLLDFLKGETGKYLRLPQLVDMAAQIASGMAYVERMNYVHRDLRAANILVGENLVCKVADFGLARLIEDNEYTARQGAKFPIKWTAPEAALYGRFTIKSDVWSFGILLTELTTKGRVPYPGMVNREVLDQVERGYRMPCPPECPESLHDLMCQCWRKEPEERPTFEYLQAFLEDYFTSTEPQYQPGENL
row,SMILES,Kd
1,CN(C)C(=O)c1cc2cnc(Nc3ccc(N4CCNCC4)cn3)nc2n1C1CCCC1 [RIBOCICLIB],> 30 µM (inactive)
2,CNC(=O)CN1CCC(Oc2cc3c(Nc4cccc(Cl)c4F)ncnc3cc2OC)CC1 [SAPITINIB],> 30 µM (inactive)

# Biological target: Rho-associated protein kinase 1 (Homo sapiens, UniProt Q13464)
row,SMILES,Kd
1,CN(C)C(=O)c1cc2cnc(Nc3ccc(N4CCNCC4)cn3)nc2n1C1CCCC1 [RIBOCICLIB],> 30 µM (inactive)
2,CNC(=O)CN1CCC(Oc2cc3c(Nc4cccc(Cl)c4F)ncnc3cc2OC)CC1 [SAPITINIB],> 30 µM (inactive)

# Biological target: T2, ADP/ATP translocase 3 (Homo sapiens, UniProt P12236)
# T2 sequence (P12236 whole entry): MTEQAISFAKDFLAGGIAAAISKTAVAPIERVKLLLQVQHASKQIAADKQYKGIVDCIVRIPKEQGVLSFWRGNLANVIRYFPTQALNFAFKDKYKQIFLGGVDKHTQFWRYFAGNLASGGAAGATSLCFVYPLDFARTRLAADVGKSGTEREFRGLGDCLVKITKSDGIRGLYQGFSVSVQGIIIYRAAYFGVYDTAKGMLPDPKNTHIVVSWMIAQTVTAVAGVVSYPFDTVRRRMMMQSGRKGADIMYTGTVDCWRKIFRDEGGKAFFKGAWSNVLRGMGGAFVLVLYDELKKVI
row,SMILES,Kd
1,CN(C)C(=O)c1cc2cnc(Nc3ccc(N4CCNCC4)cn3)nc2n1C1CCCC1 [RIBOCICLIB],> 30 µM (inactive)
2,CNC(=O)CN1CCC(Oc2cc3c(Nc4cccc(Cl)c4F)ncnc3cc2OC)CC1 [SAPITINIB],> 30 µM (inactive)

# Biological target: Serine/threonine-protein kinase 16 (Homo sapiens, UniProt O75716)
# Sequence (O75716 whole entry): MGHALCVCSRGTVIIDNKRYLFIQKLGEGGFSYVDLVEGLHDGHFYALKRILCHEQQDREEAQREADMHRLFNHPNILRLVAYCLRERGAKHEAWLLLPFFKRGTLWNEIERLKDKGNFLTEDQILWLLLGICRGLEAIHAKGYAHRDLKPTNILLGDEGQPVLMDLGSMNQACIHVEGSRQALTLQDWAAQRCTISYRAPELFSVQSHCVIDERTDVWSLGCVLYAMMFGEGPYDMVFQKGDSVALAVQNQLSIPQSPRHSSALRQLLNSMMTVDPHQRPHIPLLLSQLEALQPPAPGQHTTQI
row,SMILES,Kd
1,CN(C)C(=O)c1cc2cnc(Nc3ccc(N4CCNCC4)cn3)nc2n1C1CCCC1 [RIBOCICLIB],> 30 µM (inactive)
2,CNC(=O)CN1CCC(Oc2cc3c(Nc4cccc(Cl)c4F)ncnc3cc2OC)CC1 [SAPITINIB],> 30 µM (inactive)

# Biological target: Protein-tyrosine kinase 6 (Homo sapiens, UniProt Q13882)
# Sequence (Q13882 whole entry): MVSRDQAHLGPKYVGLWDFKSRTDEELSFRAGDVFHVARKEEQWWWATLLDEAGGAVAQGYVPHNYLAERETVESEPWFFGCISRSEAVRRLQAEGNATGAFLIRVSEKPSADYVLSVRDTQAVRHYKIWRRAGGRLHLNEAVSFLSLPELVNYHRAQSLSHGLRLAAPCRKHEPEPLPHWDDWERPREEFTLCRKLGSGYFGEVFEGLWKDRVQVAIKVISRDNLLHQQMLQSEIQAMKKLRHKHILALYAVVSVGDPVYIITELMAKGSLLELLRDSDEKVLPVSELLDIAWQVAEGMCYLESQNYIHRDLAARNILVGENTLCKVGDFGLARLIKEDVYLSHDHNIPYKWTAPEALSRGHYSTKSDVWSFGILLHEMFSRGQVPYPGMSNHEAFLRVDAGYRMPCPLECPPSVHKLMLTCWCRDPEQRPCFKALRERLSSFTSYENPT
row,SMILES,Kd
1,CN(C)C(=O)c1cc2cnc(Nc3ccc(N4CCNCC4)cn3)nc2n1C1CCCC1 [RIBOCICLIB],> 30 µM (inactive)
2,CNC(=O)CN1CCC(Oc2cc3c(Nc4cccc(Cl)c4F)ncnc3cc2OC)CC1 [SAPITINIB],2.2 µM (active)

# Biological target: Tyrosine-protein kinase Yes (Homo sapiens, UniProt P07947)
# Sequence (P07947 whole entry): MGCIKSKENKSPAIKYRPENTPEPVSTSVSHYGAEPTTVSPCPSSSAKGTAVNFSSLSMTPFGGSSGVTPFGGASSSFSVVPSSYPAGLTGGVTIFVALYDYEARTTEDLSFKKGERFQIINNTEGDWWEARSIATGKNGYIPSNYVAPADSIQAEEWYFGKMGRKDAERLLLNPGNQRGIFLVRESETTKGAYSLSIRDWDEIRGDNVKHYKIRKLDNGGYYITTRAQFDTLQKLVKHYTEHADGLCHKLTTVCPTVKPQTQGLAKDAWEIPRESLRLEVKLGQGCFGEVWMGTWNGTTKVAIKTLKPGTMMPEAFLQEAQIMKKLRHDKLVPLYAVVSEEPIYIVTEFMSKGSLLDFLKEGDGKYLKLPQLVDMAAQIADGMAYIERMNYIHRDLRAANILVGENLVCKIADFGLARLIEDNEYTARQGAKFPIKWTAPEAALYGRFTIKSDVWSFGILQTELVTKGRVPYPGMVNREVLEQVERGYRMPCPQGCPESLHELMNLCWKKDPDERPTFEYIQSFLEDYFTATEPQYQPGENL
row,SMILES,Kd
1,CN(C)C(=O)c1cc2cnc(Nc3ccc(N4CCNCC4)cn3)nc2n1C1CCCC1 [RIBOCICLIB],> 30 µM (inactive)
2,CNC(=O)CN1CCC(Oc2cc3c(Nc4cccc(Cl)c4F)ncnc3cc2OC)CC1 [SAPITINIB],> 30 µM (inactive)

# Biological target: Mitogen-activated protein kinase kinase kinase kinase 5 (Homo sapiens, UniProt Q9Y4K4)
# Sequence (Q9Y4K4 whole entry): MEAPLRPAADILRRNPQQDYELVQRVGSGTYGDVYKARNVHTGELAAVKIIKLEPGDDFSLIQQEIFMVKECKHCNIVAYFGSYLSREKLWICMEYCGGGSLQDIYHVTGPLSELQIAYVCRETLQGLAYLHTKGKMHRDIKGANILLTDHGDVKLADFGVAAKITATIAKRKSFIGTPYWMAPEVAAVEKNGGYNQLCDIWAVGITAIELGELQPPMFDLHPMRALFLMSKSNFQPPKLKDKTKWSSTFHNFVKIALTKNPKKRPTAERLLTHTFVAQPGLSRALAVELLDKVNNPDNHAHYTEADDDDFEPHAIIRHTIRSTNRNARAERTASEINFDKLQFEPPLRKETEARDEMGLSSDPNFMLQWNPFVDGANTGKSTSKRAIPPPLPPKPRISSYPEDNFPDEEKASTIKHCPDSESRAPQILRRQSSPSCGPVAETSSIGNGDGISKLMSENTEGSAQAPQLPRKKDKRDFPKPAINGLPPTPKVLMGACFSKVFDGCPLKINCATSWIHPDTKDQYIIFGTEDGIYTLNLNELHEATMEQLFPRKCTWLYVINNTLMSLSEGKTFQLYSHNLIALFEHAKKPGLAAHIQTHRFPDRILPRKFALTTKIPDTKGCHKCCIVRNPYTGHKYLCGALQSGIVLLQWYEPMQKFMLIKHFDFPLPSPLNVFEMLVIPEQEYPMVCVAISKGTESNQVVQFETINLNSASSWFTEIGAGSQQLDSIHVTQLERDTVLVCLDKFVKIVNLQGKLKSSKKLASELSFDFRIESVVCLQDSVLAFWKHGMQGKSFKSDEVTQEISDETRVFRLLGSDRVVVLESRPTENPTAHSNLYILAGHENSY
row,SMILES,Kd
1,CN(C)C(=O)c1cc2cnc(Nc3ccc(N4CCNCC4)cn3)nc2n1C1CCCC1 [RIBOCICLIB],> 30 µM (inactive)
2,CNC(=O)CN1CCC(Oc2cc3c(Nc4cccc(Cl)c4F)ncnc3cc2OC)CC1 [SAPITINIB],> 30 µM (inactive)

# Biological target: T3, Ras-related protein Rab-27A (Homo sapiens, UniProt P51159)
# T3 sequence (P51159 whole entry): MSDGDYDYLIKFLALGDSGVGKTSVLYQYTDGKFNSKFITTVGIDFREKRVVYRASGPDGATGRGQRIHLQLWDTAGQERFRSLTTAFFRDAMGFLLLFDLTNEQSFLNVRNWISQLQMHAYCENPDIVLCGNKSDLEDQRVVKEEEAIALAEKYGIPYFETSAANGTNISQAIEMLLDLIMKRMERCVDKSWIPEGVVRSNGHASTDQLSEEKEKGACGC
row,SMILES,Kd
1,CN(C)C(=O)c1cc2cnc(Nc3ccc(N4CCNCC4)cn3)nc2n1C1CCCC1 [RIBOCICLIB],> 30 µM (inactive)
2,CNC(=O)CN1CCC(Oc2cc3c(Nc4cccc(Cl)c4F)ncnc3cc2OC)CC1 [SAPITINIB],> 30 µM (inactive)

# Biological target: Ras-related protein Rab-6A (Homo sapiens, UniProt P20340)
# Sequence (P20340 whole entry): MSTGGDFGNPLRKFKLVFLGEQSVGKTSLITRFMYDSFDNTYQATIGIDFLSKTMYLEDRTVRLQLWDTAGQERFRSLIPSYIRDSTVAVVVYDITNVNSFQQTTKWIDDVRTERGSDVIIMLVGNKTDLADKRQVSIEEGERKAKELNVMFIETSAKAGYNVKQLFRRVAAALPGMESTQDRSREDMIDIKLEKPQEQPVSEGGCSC
row,SMILES,Kd
1,CN(C)C(=O)c1cc2cnc(Nc3ccc(N4CCNCC4)cn3)nc2n1C1CCCC1 [RIBOCICLIB],> 30 µM (inactive)
2,CNC(=O)CN1CCC(Oc2cc3c(Nc4cccc(Cl)c4F)ncnc3cc2OC)CC1 [SAPITINIB],> 30 µM (inactive)

# Biological target: T4, Interleukin-1 receptor-associated kinase 3 (Homo sapiens, UniProt Q9Y616)
# T4 sequence (Q9Y616 whole entry): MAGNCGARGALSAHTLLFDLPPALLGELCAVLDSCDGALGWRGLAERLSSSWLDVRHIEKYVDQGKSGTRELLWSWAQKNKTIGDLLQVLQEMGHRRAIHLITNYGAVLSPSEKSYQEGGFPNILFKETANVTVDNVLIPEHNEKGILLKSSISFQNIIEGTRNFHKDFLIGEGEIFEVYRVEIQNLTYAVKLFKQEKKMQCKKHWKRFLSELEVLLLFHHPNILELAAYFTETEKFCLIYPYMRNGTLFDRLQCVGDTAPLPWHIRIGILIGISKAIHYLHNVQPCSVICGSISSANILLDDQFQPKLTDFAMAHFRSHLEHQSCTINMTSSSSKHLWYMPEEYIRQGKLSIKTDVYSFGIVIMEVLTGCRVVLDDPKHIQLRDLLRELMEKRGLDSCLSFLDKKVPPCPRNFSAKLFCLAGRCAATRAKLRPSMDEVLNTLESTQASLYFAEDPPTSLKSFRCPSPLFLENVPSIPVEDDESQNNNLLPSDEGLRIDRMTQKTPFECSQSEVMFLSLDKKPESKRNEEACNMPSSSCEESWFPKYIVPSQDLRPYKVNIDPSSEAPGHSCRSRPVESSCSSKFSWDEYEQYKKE
row,SMILES,Kd
1,CN(C)C(=O)c1cc2cnc(Nc3ccc(N4CCNCC4)cn3)nc2n1C1CCCC1 [RIBOCICLIB],> 30 µM (inactive)
2,CNC(=O)CN1CCC(Oc2cc3c(Nc4cccc(Cl)c4F)ncnc3cc2OC)CC1 [SAPITINIB],> 30 µM (inactive)

# Biological target: T5, Ferrochelatase, mitochondrial (Homo sapiens, UniProt P22830)
# T5 sequence (P22830 whole entry): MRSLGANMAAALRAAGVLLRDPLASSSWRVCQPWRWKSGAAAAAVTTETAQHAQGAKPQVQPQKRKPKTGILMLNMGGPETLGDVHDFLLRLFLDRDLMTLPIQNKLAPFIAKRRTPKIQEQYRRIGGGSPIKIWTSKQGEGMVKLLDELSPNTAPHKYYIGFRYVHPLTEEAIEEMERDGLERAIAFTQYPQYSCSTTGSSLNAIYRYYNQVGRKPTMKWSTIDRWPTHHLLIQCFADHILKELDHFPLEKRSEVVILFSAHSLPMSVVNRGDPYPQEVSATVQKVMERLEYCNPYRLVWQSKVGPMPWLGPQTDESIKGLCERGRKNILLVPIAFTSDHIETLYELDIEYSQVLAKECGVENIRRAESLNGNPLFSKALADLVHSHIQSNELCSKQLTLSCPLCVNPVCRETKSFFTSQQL
row,SMILES,Kd
1,CN(C)C(=O)c1cc2cnc(Nc3ccc(N4CCNCC4)cn3)nc2n1C1CCCC1 [RIBOCICLIB],12.3 µM
2,CNC(=O)CN1CCC(Oc2cc3c(Nc4cccc(Cl)c4F)ncnc3cc2OC)CC1 [SAPITINIB],> 30 µM (inactive)

# Biological target: Mitotic checkpoint serine/threonine-protein kinase BUB1 (Homo sapiens, UniProt O43683)
# Sequence (O43683 whole entry): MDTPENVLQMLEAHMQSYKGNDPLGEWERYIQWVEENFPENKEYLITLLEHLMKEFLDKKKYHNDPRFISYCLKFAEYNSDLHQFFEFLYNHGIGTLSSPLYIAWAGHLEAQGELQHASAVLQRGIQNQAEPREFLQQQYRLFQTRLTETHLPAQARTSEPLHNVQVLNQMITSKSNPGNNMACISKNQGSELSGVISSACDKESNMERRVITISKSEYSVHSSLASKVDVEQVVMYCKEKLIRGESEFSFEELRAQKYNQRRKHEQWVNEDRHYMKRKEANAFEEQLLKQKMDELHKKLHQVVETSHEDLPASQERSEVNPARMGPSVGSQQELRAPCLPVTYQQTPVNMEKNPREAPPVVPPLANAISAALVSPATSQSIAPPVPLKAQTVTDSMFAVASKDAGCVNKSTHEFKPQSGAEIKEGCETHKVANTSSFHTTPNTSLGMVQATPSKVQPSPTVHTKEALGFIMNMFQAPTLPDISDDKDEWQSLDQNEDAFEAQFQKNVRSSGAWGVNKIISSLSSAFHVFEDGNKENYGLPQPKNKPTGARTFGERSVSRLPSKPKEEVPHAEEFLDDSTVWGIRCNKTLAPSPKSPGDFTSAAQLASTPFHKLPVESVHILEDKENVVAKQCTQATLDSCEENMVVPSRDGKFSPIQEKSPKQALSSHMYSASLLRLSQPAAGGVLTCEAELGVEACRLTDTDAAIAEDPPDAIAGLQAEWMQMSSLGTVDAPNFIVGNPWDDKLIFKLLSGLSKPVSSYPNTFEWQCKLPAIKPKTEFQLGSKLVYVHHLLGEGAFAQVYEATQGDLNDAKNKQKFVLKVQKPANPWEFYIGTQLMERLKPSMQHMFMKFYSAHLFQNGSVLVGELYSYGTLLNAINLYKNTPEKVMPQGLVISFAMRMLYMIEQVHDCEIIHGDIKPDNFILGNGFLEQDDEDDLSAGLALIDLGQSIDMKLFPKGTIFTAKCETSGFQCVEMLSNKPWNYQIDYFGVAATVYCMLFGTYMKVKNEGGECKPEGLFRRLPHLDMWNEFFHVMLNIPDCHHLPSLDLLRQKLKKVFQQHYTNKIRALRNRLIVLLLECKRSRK
row,SMILES,Kd
1,CN(C)C(=O)c1cc2cnc(Nc3ccc(N4CCNCC4)cn3)nc2n1C1CCCC1 [RIBOCICLIB],> 30 µM (inactive)
2,CNC(=O)CN1CCC(Oc2cc3c(Nc4cccc(Cl)c4F)ncnc3cc2OC)CC1 [SAPITINIB],> 30 µM (inactive)
